Measured values: patent publication US9416103B2, “Use of the aminoalkylindole JWH-073-M4 and related compounds as neutral CB1 receptor antagonists for the treatment of alcoholism, drug abuse, obesity, and obesity-related diseases” (The Board of Trustees of the University of Arkansas, priority 2012, dated 2016)
Where two headings read alike, the source gives them in different places.

What was measured:
hCB2Rs [1] = biological target: T1, hCB2Rs (Homo sapiens (Human), UniProt P34972); assay: Competition receptor binding with [3H]CP-55,940 in CHO-hCB2 cell homogenates
Experimental: (§1) Competition receptor binding was performed as previously described. […] Reactions were terminated by rapid vacuum filtration through Whatman GF/B glass fiber filters, followed by five washes with ice-cold buffer (50 mM Tris, 0.05% BSA). Filters were immediately placed into 7 mL scintillation vials to which 4 mL of ScintiVerse™ BD Cocktail scintillation fluid (Fisher Scientific, Fair Lawn, N.J.) was added. Bound radioactivity was determined after overnight incubation at room temperature and shaking, by liquid scintillation spectrophotometry with an efficiency of 44% (Tri Carb 2100 TR Liquid Scintillation Analyzer, Packard Instrument Company, Meriden, Conn.). Specific binding is expressed as total binding minus non-specific binding, and is graphed for each data point as a percentage of specific binding occurring in the absence of any competitor.
(§2) The prepared analogues were subjected to in vitro pharmacological testing, which included receptor binding and functional assays at both cannabinoid receptors. Initial receptor binding screens at both CB1Rs and CB2Rs were conducted for the analogues prepared.

CB1Rs = CB1Rs (Mus musculus (Mouse), UniProt P47746); assay: Competition receptor binding with [3H]CP-55,940 in mouse brain homogenates
Experimental: Mouse brain homogenates for in vitro assays were prepared as previously described. Briefly, whole brains were harvested from B6SJL mice, snap-frozen in liquid nitrogen and stored at −80° C. On the day membrane homogenates were to be prepared, brains were thawed on ice, then pooled in a 40 mL Dounce glass homogenizer and suspended in 5 volumes of ice cold homogenization buffer (50 mM HEPES, pH 7.4, 3 mM MgCl2, and 1 mM EGTA). Brains were then subjected to 10 complete strokes with an A pestle, followed by centrifugation at 40,000×g for 10 minutes at +4° C. Resulting supernatants were discarded, and the pellet was resuspended, homogenized and centrifuged similarly twice more, with supernatants being discarded. For the final resuspension and homogenization with a B pestle, ice-cold 50 mM HEPES was used in place of homogenization buffer, and homogenates were aliquoted and stored at −80° C. Protein concentrations of homogenates were determined using the BCA™ Protein Assay (Thermo Scientific, Rockford, Ill.).
as §1
Curve fitting and statistical analyses for in vitro experiments were performed using GraphPad Prism™ version 5.0b (GraphPad Software Inc., San Diego, Calif.). The Cheng-Prusoff equation [45] was used to convert the experimental IC50 values obtained from competition receptor binding experiments to Ki values, a quantitative measure of receptor affinity. Non-linear regression for one-site competition was used to determine the IC50 for competition receptor binding. Curve fitting of concentration-effect curves via non-linear regression was also employed to determine the EC50 (a measure of potency) and Emax (a measure of efficacy) for [^35S]GTPγS concentration-effects experiments. […] Data are expressed as mean±SEM. The Student's t-test was used to determine statistical significance (P<0.05) between two groups, while a one-way ANOVA, followed by Tukey's Multiple Comparison post-hoc test, was used to determine statistical significance (P<0.05) between three or more groups.
as §2

mice = assay: Thermoregulation assay, antagonism of JWH-073-induced hypothermia; assay type: in vivo, mouse; conditions: 10 mg/kg
Text: Our hypothesis is that a dual activity CB1R antagonist/CB2R agonist will reduce the reinforcing effects of EtOH as well as reduce the conditioned rewarding effects of ethanol in mice. The compounds selected will firstly be put through a thermoregulation assay as a screen for potential cannabinoid receptor activity. Thermoregulation will be used as a screen because of the well-established hypothermic effects seen with the use of cannabinoid ligands. This assay was done using glass radiotelemetry probes that were surgically implanted in each mouse, which monitor core temperature in response to drug administration. […] This screen does indeed confirm the in vivo cannabinoid activity of TV-5-249 and TV-6-41 and it also illustrates the evident antagonist effects against agonist induced hypothermia.

[2] = biological target: CB1Rs endogenously expressed in Neuro2A cells (Mus musculus (Mouse), UniProt P47746); assay: Adenylyl cyclase (AC) inhibition via CB1Rs endogenously expressed in Neuro2A cells; assay type: cell-based
NIH Swiss mice [3] = assay: Locomotor activity by biotelemetry (cannabinoid tetrad); assay type: in vivo, mouse; conditions: M4 10 mg/kg i.p. + JWH-018 3 mg/kg i.p.
[4] = test system: mice trained to discriminate THC; assay: THC drug discrimination (generalization of JWH-018 to THC); assay type: in vivo, mouse; conditions: M4 10 mg/kg i.p. + JWH-018 1 mg/kg; training dose THC 10 mg/kg i.p.
hCB2Rs [5] = biological target: T1, hCB2Rs; assay: Inhibition of forskolin-stimulated cAMP production (adenylyl cyclase) in intact CHO-hCB2R cells; assay type: cell-based
Experimental: Adenylyl cyclases are a family of membrane-bound enzymes that catalyze the intracellular production of the second messenger cAMP from ATP. Adenylyl cyclase activity is modulated by activated G-proteins: Gs-proteins stimulate activity, while Gi/o-proteins are inhibitory. Thus, agonists of G-protein coupled receptors (GPCRs) coupled to Gi/o-proteins, such as hCB2Rs, decrease cAMP production due to inhibition of adenylyl cyclase activity. In this assay, intact CHO-hCB2R cells are preincubated with [^3H]-adenine and treated with forskolin (10 or 30 μM) to stimulate adenylyl cyclase activity.
A functional assay screen for the inhibition of adenylate cyclase (AC) activity was chosen as the subsequent assay. […] Reaching full-receptor occupancy, which is predicted to produce maximal efficacy, is desirable at 10 μM concentration of all the compounds was used.

NIH Swiss mice [6] = assay: Catalepsy, horizontal bar test; assay type: in vivo, mouse; conditions: M4 10 mg/kg i.p. + JWH-018 3 mg/kg i.p.
NIH Swiss mice [7] = assay: Analgesia, tail-flick latency; assay type: in vivo, mouse; conditions: M4 10 mg/kg i.p. + JWH-018 3 mg/kg i.p.
[8] = CHO-hCB2 homogenates (100 μg), read-out: affinity (Ki) at hCB2Rs
[9] = mouse brain homogenates, 0.2 nM [3H]CP-55,940, read-out: [3H]CP binding Ki

Row | Structure (SMILES) | Ki (hCB2Rs [1]; [8]) | Ki (hCB2Rs [1]; Table 3, read-out: hCB2R Ki) | Ki (CB1Rs; Table 3, read-out: mCB1R Ki) | Ki (CB1Rs; [9]) | hypothermic effect (mice) | inhibition of adenylyl cyclase activity, reversed by O-2050 (1 μM) ([2]; M4 1 μM) | IC50 ([2]; Neuro2A cells) | inhibition of AC-activity via CB1Rs, concentration-effect ([2]; Neuro2A cells) | antagonism of JWH-018-induced locomotor suppression (NIH Swiss mice [3]) | antagonism of generalization of JWH-018 to THC (THC-appropriate responding) [4] | Ki (hCB2Rs [1]; CHO-hCB2 homogenates (100 μg), listed as JWH-073-M4, read-out: affinity (Ki) at hCB2Rs) | Ki (CB1Rs; mouse brain homogenates, 0.2 nM [3H]CP-55,940, listed as JWH-073-M4, read-out: [3H]CP binding Ki) | inhibition of cAMP production relative to vehicle, concentration effect curve (hCB2Rs [5]; 10 μM forskolin, n=1) | inhibition of intracellular cAMP production, single concentration (hCB2Rs [5]; 10 μM, 30 μM forskolin) | potency (IC50) of inhibition of intracellular cAMP production (hCB2Rs [5]; CHO-hCB2R cells) | antagonism of JWH-018-induced catalepsy (NIH Swiss mice [6]) | antagonism of JWH-018-induced analgesia (NIH Swiss mice [7])
1 | CCCCn1cc(C(=O)c2cccc3ccccc23)c2ccccc21 [JWH-073, (1-butyl-1H-indole-3-yl)-1-naphthalenyl-methanone] | 9.84 ± 0.92 nM | 9.8 ± 0.9 nM | 12.9 ± 3.4 nM | 12.9 ± 3.4 nM | profound hypothermic effect |  |  |  |  |  |  |  |  |  |  |  | 
2 | CCCCn1cc(C(=O)c2cccc3ccccc23)c2cccc(O)c21 [Compound M4] | 251 ± 91.1 nM | 78.3 ± 36.2 nM | 24.2 ± 17.2 nM | 122 nM |  | inhibited activity of the downstream intracellular effector adenylyl cyclase | 225 nM | 50-60% | no difference | No change in THC-appropriate responding | ~250 nM | ~120 nM | 81% | 48% | nanomolar potency | no difference | no difference
